Measurements reported in patent US12275729B2 (Merck Sharp & Dohme LLC, priority 2017, dated 2025).
pIC50: −log10 of the molar value.

What follows are compounds tested against IDO1 (Homo sapiens, UniProt P14902) (assay: IDO1 Cellular Assay in HeLa Cells Stimulated with IFNγ). Settings: about 48 hours, read-out: Hela IC50.
Chain of IDO1 (P14902 whole entry): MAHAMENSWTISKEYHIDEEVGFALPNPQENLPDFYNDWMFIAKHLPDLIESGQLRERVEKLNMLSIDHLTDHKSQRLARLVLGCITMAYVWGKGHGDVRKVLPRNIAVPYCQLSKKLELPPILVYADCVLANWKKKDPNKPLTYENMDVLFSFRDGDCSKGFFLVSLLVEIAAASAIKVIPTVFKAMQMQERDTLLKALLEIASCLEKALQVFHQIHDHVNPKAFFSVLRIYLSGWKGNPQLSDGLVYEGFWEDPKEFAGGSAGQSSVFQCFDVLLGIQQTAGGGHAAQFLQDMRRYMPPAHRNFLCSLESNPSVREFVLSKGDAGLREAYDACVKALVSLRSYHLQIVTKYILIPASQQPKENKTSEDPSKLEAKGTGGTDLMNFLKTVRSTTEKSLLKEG
Type: cell-based
Work on O=C(Nc1ccc(F)cc1)C(c1ccc2c(n1)CCCN2C(=O)C1CC1)C1CC1 (stereo not drawn) [Example 260, 2-(5-(cyclopropanecarbonyl)-5,6,7,8-tetrahydro-1,5-naphthyridin-2-yl)-2-cyclopropyl-N-(4-fluorophenyl)acetamide] yielded a pIC50 of 7.47.
In the case of CC(C)C(C(=O)Nc1ccc(F)cc1)c1ccc2c(n1)CCCN2C(=O)C1CC1 (stereo not drawn) [Example 263, 2-(5-(cyclopropanecarbonyl)-5,6,7,8-tetrahydro-1,5-naphthyridin-2-yl)-N-(4-fluorophenyl)-3-methylbutanamide], the pIC50 was 7.46.
CC(C)C(C(=O)Nc1ccc(F)cc1)c1ccc2c(n1)CCCN2C(=O)C1CC1 (stereo not drawn) [Example 264, 2-(5-(cyclopropanecarbonyl)-5,6,7,8-tetrahydro-1,5-naphthyridin-2-yl)-N-(4-fluorophenyl)-3-methylbutanamide] gave a pIC50 of 7.51.
Compound CC(C)C(C(=O)Nc1ccc(F)cc1)c1ccc2c(n1)CCCN2C(=O)C1CC1 (stereo not drawn) [Example 265, 2-(5-(cyclopropanecarbonyl)-5,6,7,8-tetrahydro-1,5-naphthyridin-2-yl)-N-(4-fluorophenyl)-3-methylbutanamide] has a pIC50 of 7.80.
Compound O=C(c1cccc(Cl)c1)N1CCCc2nc(C3(C(=O)Nc4ccc(F)cc4)COC3)ccc21 [Example 267, 3-(5-(3-chlorobenzoyl)-5,6,7,8-tetrahydro-1,5-naphthyridin-2-yl)-N-(4-fluorophenyl)oxetane-3-carboxamide] has a pIC50 of 8.66.
O=C(OC1CC1)N1CCc2nc(C3(C(=O)Nc4ccc(F)cc4)CCC3)ccc21 [Example 269, cyclopropyl 5-(1-((4-fluorophenyl)carbamoyl)cyclobutyl) 2,3-dihydro-1H-pyrrolo[3,2-b]pyridine-1-carboxylate] was tested, and the pIC50 was 8.66.
With O=C(Nc1ccc(F)cc1)C1(c2ccc3c(n2)CCN3c2ccccn2)CCC1 [Example 271, N-(4-fluorophenyl)-1-[1-(pyridin-2-yl)-2,3-dihydro-1H-pyrrolo[3,2-b]pyridin-5-yl]cyclobutane-1-carboxamide] the pIC50 was 7.96.
Work on CCN(C(=O)N1CCc2cc(C3(C(=O)Nc4ccc(Cl)cc4)CCC3)ccc21)C(C)C [Example 274, 5-{1-[(4-chlorophenyl)carbamoyl]cyclobutyl}-N-ethyl-N-(propan-2-yl)-2,3-dihydro-1H-indole-1-carboxamide] yielded a pIC50 of 8.48.
In the case of CC(NC(=O)c1ccc(F)cc1)c1ccc2c(n1)CCCN2C(=O)c1ccccn1 (stereo not drawn) [Example 280, 2-(1-(4-fluorobenzamido)ethyl)-5-picolinoyl-5,6,7,8-tetrahydro-1,5-naphthyridin-1-ium 2,2,2-trifluoroacetate], the pIC50 was 8.15.
With Cc1cccc(C(=O)N2CCCc3nc(C(C)NC(=O)c4ccc(F)cc4)ccc32)n1 (stereo not drawn) [Example 281, 2-(1-(4-fluorobenzamido)ethyl)-5-(6-methylpicolinoyl)-5,6,7,8-tetrahydro-1,5-naphthyridin-1-ium 2,2,2-trifluoroacetate] the pIC50 was 8.52.
CC(NC(=O)c1ccc(F)cc1)c1ccc2c(n1)CCCN2C(=O)c1cc(F)ccn1 (stereo not drawn) [Example 282, 2-(1-(4-fluorobenzamido)ethyl)-5-(4-fluoropicolinoyl)-5,6,7,8-tetrahydro-1,5-naphthyridin-1-ium 2,2,2-trifluoroacetate] was tested, and the pIC50 was 8.55.
CC(NC(=O)c1ccc(F)cc1)c1ccc2c(n1)CCCN2C(=O)c1ncccc1F (stereo not drawn) [Example 283, 2-(1-(4-fluorobenzamido)ethyl)-5-(3-fluoropicolinoyl)-5,6,7,8-tetrahydro-1,5-naphthyridin-1-ium 2,2,2-trifluoroacetate] gave a pIC50 of 8.66.
With CC(NC(=O)c1ccc(F)cc1)c1ccc2c(n1)CCCN2C(=O)c1cccc(C(F)(F)F)c1 (stereo not drawn) [Example 284, 2-(1-(4-fluorobenzamido)ethyl)-5-(3-(trifluoromethyl)benzoyl)-5,6,7,8-tetrahydro-1,5-naphthyridin-1-ium 2,2,2-trifluoroacetate] the pIC50 was 8.92.
CC(C(=O)Nc1ccc(F)cc1)c1ccc2c(n1)CCCN2C(=O)c1cccc(S(C)(=O)=O)c1 (stereo not drawn) [Example 285, N-(4-fluorophenyl)-2-(5-(3-(methylsulfonyl)benzoyl)-5,6,7,8-tetrahydro-1,5-naphthyridin-2-yl)propanamide] showed a pIC50 of 5.40.
CC(NC(=O)c1ccc(Cl)cc1)c1ccc2c(n1)CCCN2C(=O)c1cc(C2CC2)ccn1 (stereo not drawn) [Example 288, 4-chloro-N-(1-(5-(4-cyclopropylpicolinoyl)-5,6,7,8-tetrahydro-1,5-naphthyridin-2-yl)ethyl)benzamide] was tested, and the pIC50 was 8.49.
Compound CC(C)(O)c1cccc(N2CCCc3nc(C4(NC(=O)c5ccc(F)cc5)CC4)ccc32)n1 [Example 297, 4-fluoro-N-(1-(5-(6-(2-hydroxypropan-2-yl)pyridin-2-yl)-5,6,7,8-tetrahydro-1,5-naphthyridin-2-yl)cyclopropyl)benzamide] has a pIC50 of 7.33.
For COc1ccnc(N2CCCc3nc(C4(NC(=O)c5ccc(F)cc5)CC4)ccc32)n1 [Example 298, 4-fluoro-N-(1-(5-(4-methoxypyrimidin-2-yl)-5,6,7,8-tetrahydro-1,5-naphthyridin-2-yl)cyclopropyl)benzamide], the pIC50 was 7.84.
Compound Cc1nccc(N2CCCc3nc(C4(NC(=O)c5ccc(Cl)cc5)CC4)ccc32)n1 [Example 299, 4-chloro-N-(1-(5-(2-methylpyrimidin-4-yl)-5,6,7,8-tetrahydro-1,5-naphthyridin-2-yl)cyclopropyl)benzamide] has a pIC50 of 9.13.
Work on Cc1nccc(N2CCCc3nc(C4(NC(=O)c5ccc(F)c(F)c5)CC4)ccc32)n1 [Example 302, 3,4-difluoro-N-(1-(5-(2-methylpyrimidin-4-yl)-5,6,7,8-tetrahydro-1,5-naphthyridin-2-yl)cyclopropyl)benzamide] yielded a pIC50 of 8.53.

Same assay, conditions: read-out: Hela IC50
CC(NC(=O)c1ccc(F)cc1)c1ccc2c(n1)CCCN2C(=O)OCC1CCO1 (stereo not drawn) [Example 313, oxetan-2-ylmethyl 6-(1-(4-fluorobenzamido)ethyl)-3,4-dihydro-1,5-naphthyridine-1(2H)-carboxylate] was tested, and the pIC50 was 7.34.
With CC(NC(=O)c1ccc(F)cc1)c1ccc2c(n1)CCCN2C(=O)OC1CCCC1 (stereo not drawn) [Example 314, cyclopentyl 6-(1-(4-fluorobenzamido)ethyl)-3,4-dihydro-1,5-naphthyridine-1(2H)-carboxylate] the pIC50 was 9.19.
For CC(NC(=O)c1ccc(F)cc1)c1ccc2c(n1)CCCN2C(=O)OCc1ccn(C)n1 (stereo not drawn) [Example 317, (1-methyl-1H-pyrazol-3-yl)methyl 6-(1-(4-fluorobenzamido)ethyl)-3,4-dihydro-1,5-naphthyridine-1(2H)-carboxylate], the pIC50 was 7.67.
CC(NC(=O)c1ccc(F)cc1)c1ccc2c(n1)CCCN2C(=O)OC(C)c1cccnc1 (stereo not drawn) [Example 318, 1-(pyridin-3-yl)ethyl 6-(1-(4-fluorobenzamido)ethyl)-3,4-dihydro-1,5-naphthyridine-1(2H)-carboxylate] showed a pIC50 of 7.70.
CC(NC(=O)c1ccc(F)cc1)c1ccc2c(n1)CCCN2C(=O)OCCC1CC1(F)F (stereo not drawn) [Example 319, 2-(2,2-difluorocyclopropyl)ethyl 6-(1-(4-fluorobenzamido)ethyl)-3,4-dihydro-1,5-naphthyridine-1(2H)-carboxylate] was tested, and the pIC50 was 8.01.
In the case of CCCOCCOC(=O)N1CCCc2nc(C(C)NC(=O)c3ccc(F)cc3)ccc21 (stereo not drawn) [Example 323, 2-propoxyethyl 6-(1-(4-fluorobenzamido)ethyl)-3,4-dihydro-1,5-naphthyridine-1(2H)-carboxylate], the pIC50 was 8.36.
In the case of CC(NC(=O)c1ccc(F)cc1)c1ccc2c(n1)CCCN2C(=O)OCCCn1ccnc1 (stereo not drawn) [Example 325, 3-(1H-imidazol-1-yl)propyl 6-(1-(4-fluorobenzamido)ethyl)-3,4-dihydro-1,5-naphthyridine-1(2H)-carboxylate], the pIC50 was 5.89.
In the case of CC(NC(=O)c1ccc(F)cc1)c1ccc2c(n1)CCCN2C(=O)OCCc1ccc(Cl)c(Cl)c1 (stereo not drawn) [Example 326, 3,4-dichlorophenethyl 6-(1-(4-fluorobenzamido)ethyl)-3,4-dihydro-1,5-naphthyridine-1(2H)-carboxylate], the pIC50 was 7.61.
CC(COC(=O)N1CCCc2nc(C(C)NC(=O)c3ccc(F)cc3)ccc21)Oc1ccccc1 (stereo not drawn) [Example 327, 2-phenoxypropyl 6-(1-(4-fluorobenzamido)ethyl)-3,4-dihydro-1,5-naphthyridine-1(2H)-carboxylate] showed a pIC50 of 7.84.
With CC(NC(=O)c1ccc(F)cc1)c1ccc2c(n1)CCCN2C(=O)OCCn1ccnc1 (stereo not drawn) [Example 328, 2-(1H-imidazol-1-yl)ethyl 6-(1-(4-fluorobenzamido)ethyl)-3,4-dihydro-1,5-naphthyridine-1(2H)-carboxylate] the pIC50 was 6.32.
Work on CC(NC(=O)c1ccc(F)cc1)c1ccc2c(n1)CCCN2C(=O)OCCN(C)C (stereo not drawn) [Example 329, 2-(dimethylamino)ethyl 6-(1-(4-fluorobenzamido)ethyl)-3,4-dihydro-1,5-naphthyridine-1(2H)-carboxylate] yielded a pIC50 of 5.66.
For CC(NC(=O)c1cccc(C#N)c1)c1ccc2c(n1)CCCN2C(=O)OC1CC1 (stereo not drawn) [Example 335, cyclopropyl 6-(1-(3-cyanobenzamido)ethyl)-3,4-dihydro-1,5-naphthyridine-1(2H)-carboxylate], the pIC50 was 5.24.
Compound COc1cccc(C(=O)NC(C)c2ccc3c(n2)CCCN3C(=O)OC2CC2)c1 (stereo not drawn) [Example 336, cyclopropyl 6-(1-(3-methoxybenzamido)ethyl)-3,4-dihydro-1,5-naphthyridine-1(2H)-carboxylate] has a pIC50 of 6.01.
CC(NC(=O)c1ccc(C#N)cc1)c1ccc2c(n1)CCCN2C(=O)OC1CC1 (stereo not drawn) [Example 337, cyclopropyl 6-(1-(4-cyanobenzamido)ethyl)-3,4-dihydro-1,5-naphthyridine-1(2H)-carboxylate] gave a pIC50 of 7.05.
COc1ccc(C(=O)NC(C)c2ccc3c(n2)CCCN3C(=O)OC2CC2)cc1 (stereo not drawn) [Example 338, cyclopropyl 6-(1-(4-methoxybenzamido)ethyl)-3,4-dihydro-1,5-naphthyridine-1(2H)-carboxylate] showed a pIC50 of 6.79.
With Cc1cc(N2CCCc3nc(C(C)NC(=O)c4ccc(Cl)cc4)ccc32)nc(C(F)(F)F)n1 (stereo not drawn) [Example 349, 4-chloro-N-(1-(5-(6-methyl-2-(trifluoromethyl)pyrimidin-4-yl)-5,6,7,8-tetrahydro-1,5-naphthyridin-2-yl)ethyl)benzamide] the pIC50 was 8.01.
In the case of COc1cccc(N2CCCc3nc(C(C)NC(=O)c4ccc(Cl)cc4)ccc32)n1 (stereo not drawn) [Example 352, 4-chloro-N-(1-(5-(6-methoxypyridin-2-yl)-5,6,7,8-tetrahydro-1,5-naphthyridin-2-yl)ethyl)benzamide], the pIC50 was 8.40.
